# Tests used:
# [1] = system: HeLa; conditions: Asano et al. 1996; cited from earlier work
# [2] = system: MRC-5; experiment: Caspase cascade activation assay (Example 90); format: cell-based, human; conditions: MRC-5 non-transformed fibroblasts, 24 h incubation
# Method: (§1) Human breast cancer cell lines T-47D and ZR-75-1, human prostate cancer cell line PC-3, human leukemia cancer cell line HL-60 and human non-transformed fibroblast cell line MRC-5 cells were grown according to media component mixtures designated by The American Type Culture Collection + 10% FCS (Life Technologies, Inc.), in a 5% CO2 -95% humidity incubator at 37° C. T-47D, ZR-75-1 and PC-3 cells were maintained at a cell density between 30 and 80% confluency and for HL-60 at a cell density of 0.1 to 0.6 x 10^6 cells/ml. Cells were harvested at 600xg and resuspended at 0.65 x 10^6 cells/ml into appropriate media + 10% FCS. […] The samples were mixed by agitation and incubated at room temperature.
# (§2) The EC50 (nM) was determined by a sigmoidal dose-response calculation (Prism 2.0, GraphPad Software Inc.). Caspase Activity and Potency
# [3] = system: ZR-75-1; experiment: Caspase cascade activation assay (Example 90); format: cell-based, human; conditions: ZR-75-1, 24 h incubation
# Method: as §1, §2
# [4] = system: PC-3; experiment: Caspase cascade activation assay (Example 90); format: cell-based, human; conditions: PC-3, 24 h incubation
# Method: as §1, §2
# [5] = system: T-47D; experiment: Caspase cascade activation assay (Example 90); format: cell-based, human; conditions: T-47D, 24 h incubation
# Method: as §1, §2
# [6] = system: HL-60; experiment: Caspase cascade activation assay (Example 90); format: cell-based, human; conditions: HL-60, 24 h incubation
# Method: as §1, §2
# [7] = system: Jurkat T leukemia cells; experiment: Apoptotic morphology, phase-contrast microscope (Example 95); format: cell-based, human; conditions: 10 µM
# Method: Jurkat T leukemia cells were grown in RPMI 1640 media (Life Technologies, Inc.) + 10% FCS (Sigma Chemical Company) in a 5% CO2-95% humidity incubator at 37° C, and maintained at a cell density between 4 and 8 x 10^5 cells/ml. Cells were harvested at 200xg and resuspended at 1-2 x 10^6 cells/ml into RPMI 1640 media + 10% FCS, and 3 ml of the cells was dispensed in each of three wells of a 6-well plate. One of the wells was treated with 10 µM caspase inhibitor cbz-Val-Asp-fink (Cytovia, Inc.; WO99/18781) and the plate was incubated at 37° C in a 5% CO2-95% humidity incubator for 1 h prior to addition of gambogic acid. The wells with and without the caspase inhibitor were treated with 10 µM gambogic acid. The third well was treated with solvent (control cells). The plate was incubated at 37° C in a 5% CO2-95% humidity incubator.
# At 30 min. after addition of gambogic acid an aliquot of cells from each well was taken into the capillary slides and observed under a phase-contrast microscope.
# [8] = system: T47D cells; experiment: Morphological change of cells, phase contrast (Example 93); format: cell-based, human; conditions: 2.5 µM
# Method: In addition, apoptotic adherent cells in culture lose their ability to remain attached to the culture dish. The ability of gambogic acid to trigger these morphological changes in T47D cells was investigated.
# 60 mm culture dishes were seeded with 750,000. T47D cells and the cultures were incubated under normal growth conditions (complete medium with 10% FBS) for 24 h. The cells were then treated with 2.5 µM of gambogic acid and further incubated under normal growth conditions for 2 or 6 h. Morphological changes were documented by photographing the cells under phase contrast illumination.
# [9] = system: KB; conditions: Lin et al. 1993; cited from earlier work
# [10] = system: SHP-77; experiment: Caspase activity with and without caspase inhibitor (Example 97); format: cell-based, human; set-up: key to Inhibition of caspase activity by Inhibitor: The caspase activity detected was inhibited by the caspase inhibitor (+)
# Method: (§3) T47D, ZR-75, PC3, SHP-77 and A-549 cells were maintained and harvested as described in Example 90. Cells were added to 96-well plates as described in Example 90. The cells were treated with 10 µM gambogic acid, in the presence and in the absence of 10 µM caspase inhibitor cbz-Val-Asp-fink (Cytovia, Inc.; WO99/18781). The plate was incubated up to 24 h at 37° C in a 5% CO2-95% humidity incubator. Caspase activity was determined by addition of a fluorogenic substrate as described in Example 90.
# (§4) Gambogic acid induced caspase activity in a ratio of greater than 2.5 (+) above untreated cell levels in all the tested cancer cell lines (Table IV). The caspase activity detected was inhibited by the caspase inhibitor (+), confirming that the fluorescent signal was due to caspase activity. Table IV. Gambogic Acid as Caspase Inducers in Solid Tumor Cells
# [11] = system: A-549; experiment: as above; format: cell-based, human; set-up: key to Inhibition of caspase activity by Inhibitor: The caspase activity detected was inhibited by the caspase inhibitor (+)
# Method: as §3, §4
# [12] = system: PC-3; experiment: as above; format: cell-based, human; set-up: key to Inhibition of caspase activity by Inhibitor: The caspase activity detected was inhibited by the caspase inhibitor (+)
# Method: as §3, §4
# [13] = system: T47D; experiment: as above; format: cell-based, human; set-up: key to Inhibition of caspase activity by Inhibitor: The caspase activity detected was inhibited by the caspase inhibitor (+)
# Method: as §3, §4
# [14] = system: ZR-75; experiment: as above; format: cell-based, human; set-up: key to Inhibition of caspase activity by Inhibitor: The caspase activity detected was inhibited by the caspase inhibitor (+)
# Method: as §3, §4
# [15] = system: T47D cells; experiment: Dose response of caspase activation, cancer cells versus normal fibroblasts (Example 96); format: cell-based, human; conditions: T47D versus MRC-5; 2 h dose response (Fig. 4)
# Method: T47D cells and MRC-5 cells were maintained and harvested as described in Example 90. […] To determine the dose response of gambogic acid for inducing caspase activity, 5 µl of 20 µM gambogic acid in RPMI media was added to wells in triplicates. Two-fold serial dilutions were made for the lower concentrations. After incubation for 2 h, the samples were removed from the 5% CO2-95% humidity incubator and caspase activity was determined by addition of a fluorogenic substrate as described in Example 90.
# [16] = 0.16 to 10 µM final, net RFU ratio to control
# [17] = Homo sapiens, caspase activation, read-out: EC50
# [18] = 10 µM plus 10 µM caspase inhibitor cbz-Val-Asp-fink
# [19] = Homo sapiens, 10 µM, up to 24 h
compound,measurement,setting,value
"CC(C)=CCC[C@]1(C)C=Cc2c(O)c3c(c(CC=C(C)C)c2O1)O[C@]12C(=C[C@@H]4C[C@H]1C(C)(C)O[C@@]2(C/C=C(/C)C(=O)O)C4=O)C3=O [Example 1, Gambogic Acid]",cytotoxicity,[1],cytotoxic
same,EC50,"[2]; Homo sapiens, MRC5, caspase activation, read-out: EC50",1410 nM
same,caspase activity (Ratio),[2]; [16],17.8
same,EC50,[3]; [17],1400 nM
same,caspase activity (Ratio),[3]; [16],11.9
same,EC50,[4]; [17],1500 nM
same,caspase activity (Ratio),[4]; [16],2.1
same,EC50,"[5]; Homo sapiens, T47D, caspase activation, read-out: EC50",560 nM
same,caspase activity (Ratio),[5]; [16],13.6
same,caspase activity (Ratio),[6]; [16],6.3
same,EC50,[6]; [17],400 nM
same,apoptotic morphology,[7]; 30 min (Fig. 3B),blebbing and cellular fragmentation
same,apoptotic morphology in the presence of caspase inhibitor,"[7]; 30 min, with 10 µM caspase inhibitor cbz-Val-Asp-fink (Fig. 3C)",prevented the morphological changes
same,apoptotic morphological changes,[8]; 2 h (Fig. 1B),"many of the cells have taken on a rounded, phase-bright morphology"
same,apoptotic morphological changes,[8]; 6 h (Fig. 1C),most of the cells in the culture are rounded up and are beginning to detach from the dish
same,cytotoxicity,[9],cytotoxic
same,Inhibition of caspase activity by Inhibitor,[10]; [18],+
same,fold induction at 10 µM,"[10]; Homo sapiens, SHP77, 10 µM, up to 24 h",> 2.5
same,Inhibition of caspase activity by Inhibitor,[11]; [18],+
same,fold induction at 10 µM,"[11]; Homo sapiens, A549, 10 µM, up to 24 h",> 2.5
same,Inhibition of caspase activity by Inhibitor,[12]; [18],+
same,fold induction at 10 µM,[12]; [19],> 2.5
same,Inhibition of caspase activity by Inhibitor,[13]; [18],+
same,fold induction at 10 µM,[13]; [19],> 2.5
same,Inhibition of caspase activity by Inhibitor,[14]; [18],+
same,fold induction at 10 µM,"[14]; Homo sapiens, ZR75, 10 µM, up to 24 h",> 2.5
same,sensitivity to induction of caspase activity,[15],more sensitive to induction of caspase activity than a normal fibroblast cell line MRC-5

# From EP1180991B1, “GAMBOGIC ACID DERIVATIVES AS ACTIVATORS OF CASPASES AND INDUCERS OF APOPTOSIS” (Cytovia, Inc., priority 1999, dated 2000)
